Experimental data: PubChem BioAssay (NCI)
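All cell lines were grown in 96-well plates and treated with compound for 48 hours. TGI denotes the concentration required for complete inhibition of growth.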 *1 amine or outer side, *2 acyl side, *3 side chain or, on linkers, in order; H or OH if unused. Where a SMILES comes first, the peptide text is derived from it. Bridges are numbered along the chain shown (N, C = ends). Roman numbers before positions name the chains, in order. [ ]: non-standard residue; d: D form. ξ: configuration not given here. X54 = N=C(N)NCCC[C@@H](NC(=N)CCCCCCC(=N)N[C@H](CCCNC(=N)N)C(=O)[*:2])C(=O)[*:1]; dIgl = N[C@@H](C(=O)O)C1Cc2ccccc2C1; Hyp = O=C(O)[C@@H]1C[C@@H](O)CN1; ξIgl = NC(C(=O)O)C1Cc2ccccc2C1; ξOic = O=C(O)C1CC2CCCCC2N1; ξR = N=C(N)NCCCC(N)C(=O)O; ξP = O=C(O)C1CCCN1; ξS = NC(CO)C(=O)O

Columns and labels:
Test in all cases: DTP human tumour cell line panel, 48 h
SK-MEL-28 melanoma = system: SK-MEL-28 melanoma
NCI/ADR-RES ovarian = system: NCI/ADR-RES ovarian
OVCAR-8 ovarian = system: OVCAR-8 ovarian
A498 renal = system: A498 renal
SK-OV-3 ovarian = system: SK-OV-3 ovarian
SN12C renal = system: SN12C renal
UACC-62 melanoma = system: UACC-62 melanoma
SF-268 CNS = system: SF-268 CNS
COLO 205 colon = system: COLO 205 colon
MALME-3M melanoma = system: MALME-3M melanoma
MDA-N = system: MDA-N

SMILES	TGI (SK-MEL-28 melanoma) [µM]	TGI (NCI/ADR-RES ovarian) [µM]	TGI (OVCAR-8 ovarian) [µM]	TGI (A498 renal) [µM]	TGI (SK-OV-3 ovarian) [µM]	TGI (SN12C renal) [µM]	TGI (UACC-62 melanoma) [µM]	TGI (SF-268 CNS) [µM]	TGI (COLO 205 colon) [µM]	TGI (MALME-3M melanoma) [µM]	TGI (MDA-N) [µM]
CCC(=O)Nc1cccc(N=Cc2ccc(OC(=O)/C=C\c3ccccc3)cc2)c1	> 75	> 75	> 75	> 75	> 75	> 75	> 75	> 75	> 75	> 75	> 75
Oc1c(CN2CCCC2)ccc2cccnc12	> 100	8.23	32.4	> 70.3	> 96.2	> 83.5	> 100	> 100	71.5	> 100	> 100
COc1ccc(-n2c(SC(CN3CCOCC3)CN3CCCC3=O)nc3ccccc3c2=O)cc1 (stereo unspecified)	> 100	> 100	> 100	> 100	> 100	> 100	> 100	> 100	> 100	> 100	> 100
Cc1cc2nc3c(C#N)c4c(c(Nc5ccc(F)cc5)n3c2cc1C)CCC4	> 100	> 100	> 100		> 100	> 100	> 100	> 100	> 100	> 100	> 100
Cc1nn(C(=O)c2ccccc2O)c2c1C(c1ccc(O)cc1O)SC(N)=N2 (stereo unspecified)	> 10	9.33	> 10	> 10	> 10	> 10	5.71	> 10	> 10	> 10	> 10
N#Cc1c(N)oc(-c2ccc([N+](=O)[O-])cc2)c1C#N	> 100	44	52.2	53.5	> 100	52.1	> 100	58.9	> 100	95.9	> 100
Cc1cc2cc3cc(C)c(N)cc3nc2cc1N	2.94	9.83	2.2	1.89		1.63	2.3	2.71	1.98	2.72	2.93
COc1ccccc1NC(=S)N=Nc1c(O)[nH]c2ccccc12	23.6	> 100	> 100	> 100	> 100	> 100	> 100	13.5	> 100	> 100	> 100
C[C@@]1(CCCCCCCCCCc2ccccc2)C[C@@]2(C)OC(=O)C[C@H]2OO1	4.2	55.8	31.7	40.8	73.3	10.4	4.35	7.95	3.37	3	3.96
CCOC(=O)/C=C/C(=O)O/C=C/[N+](=O)[O-]		> 100	> 100	> 100	> 100	> 100	> 100	> 100	> 100		> 100
O=c1c2c3c(sc2nc2n1N=CN(c1ccccc1)C2)CCCC3	> 100	> 100	> 100	> 100	> 100	> 100	> 100	> 100	> 100	> 100	> 100
O=C1c2ccccc2C(=O)N1n1c(Cc2ccc(Cl)cc2)n[nH]c1=O	> 100	> 100	> 100	> 100		> 100	> 100		> 100	> 100	> 100
O=P(O)(O)c1ccc(-c2ccc(I)cc2)cc1	> 100	> 100	> 100		> 100	> 100	> 100	> 100	> 100	> 100	> 100
CC(C)=CC1C(C(=O)Oc2ccccc2C(C)C)C1(C)C (stereo unspecified)	> 100	> 100	> 100	37.1	> 100	40.1	> 100	> 100		34.1	90
CC(C)(C)NC1=NC(C(F)(F)F)(C(F)(F)F)NC(=O)N1	> 100	> 100	> 100		> 100	> 100	> 100	> 100		> 100	> 100
O=C(CN1CCCC1=O)CS(=O)(=O)c1ccccc1	> 100	> 100	> 100				> 100	> 100	> 100	> 100	> 100
Cc1ccc(Cc2cc(N3CCN(c4cccc(Cl)c4)CC3)nnc2C)cc1	> 100	> 100	> 100	> 100	> 100	> 100	> 100	> 100	73.8		> 100
Cn1c(-c2ccc(-c3cc(-c4cccs4)c(-c4cccs4)n3C)cc2)cc(-c2cccs2)c1-c1cccs1	> 100	> 100	> 100		> 100	> 100	> 100	> 100	> 100		> 100
COc1ccc2c(c1)CC[C@@H]1C2CC[C@]2(C)C(=O)N(CCN(C)C)C(=O)CC12 (stereo partly specified)	> 100		> 100	> 100	> 100	> 100	> 100	> 100	> 100	> 100	> 100
COC(=O)CN(CC(=O)NCCCBr)C1CCCCC1N(CC(=O)OC)CC(=O)OC (stereo unspecified)	> 100	> 100	> 100	> 100	> 100	> 100	> 100	> 100	> 100		> 100

SMILES	TGI (SK-MEL-28 melanoma) [µM]	TGI (NCI/ADR-RES ovarian) [µM]	TGI (OVCAR-8 ovarian) [µM]	TGI (A498 renal) [µM]	TGI (SK-OV-3 ovarian) [µM]	TGI (SN12C renal) [µM]	TGI (UACC-62 melanoma) [µM]	TGI (SF-268 CNS) [µM]	TGI (COLO 205 colon) [µM]	TGI (MALME-3M melanoma) [µM]	TGI (MDA-N) [µM]
COC(=O)c1c(O)ccc2c1c1cc3ccccc3cc1n2Cc1cc(OC)cc(OC)c1	> 100	> 29.2	> 100	> 34.3		> 100	> 100	> 26.9	> 36.1	64.3	3.72
Cc1ccccc1NC(=O)Cc1csc(N/N=C2\NC(=O)/C(=C/c3cccc([N+](=O)[O-])c3)S2)n1	55.3	> 100	> 100		74.6	> 100			> 100		> 100
CC#C[C@]1(O)CCC2[C@@H]3CCC4=CC(=O)CCC4=C3[C@@H](c3ccc(N(C)C)cc3)C[C@@]21C (stereo partly specified)	29.5	89.3	> 100		72.4	52	18.6	27.6	24.1	42	49.3
N=C(N)NCCCC(NC(=O)C1CC2CCCCC2N1C(=O)[C@H](NC(=O)C(CO)NC(=O)C(NC(=O)CNC(=O)[C@@H]1C[C@@H](O)CN1C(=O)C1CCCN1C(=O)C(CCCNC(=N)N)NC(=O)[C@@H](CCCNC(=N)N)NC(=N)CCCCCCC(=N)N[C@H](CCCNC(=N)N)C(=O)NC(CCCNC(=N)N)C(=O)N1CCCC1C(=O)N1C[C@H](O)C[C@H]1C(=O)NCC(=O)NC(C(=O)NC(CO)C(=O)N[C@@H](C(=O)N1C(C(=O)NC(CCCNC(=N)N)C(=O)O)CC2CCCCC21)C1Cc2ccccc2C1)C1Cc2ccccc2C1)C1Cc2ccccc2C1)C1Cc2ccccc2C1)C(=O)O (stereo partly specified) (I: [ξR][ξP][Hyp]G[ξIgl][ξS][dIgl][ξOic][ξR]-OH / II: [ξR][ξP][Hyp]G[ξIgl][ξS][dIgl][ξOic][ξR]-OH; linker I:N-II:N via X54)	3.64	> 10			3.74	4.16	3.72	3.82	3.28	5.1	5.23
CN(C)CN1CSC(=S)N(CN(C)C)C1	> 100	> 100	> 100	> 100		> 100	> 100	> 100		> 100	> 100
Clc1cc(-c2ccccc2)nc(Nc2nc3ccccc3[nH]2)n1		> 100	54.2	98.3	> 100	63	35.4	80.9	51	69.1	38.7
CN(c1ccccc1)S(=O)(=O)c1ccc([N+](=O)[O-])cc1	> 100	> 100	> 100			> 100		> 100	> 100	> 100	> 100
Cc1c(C(=O)O)n2c(=S)[nH]nc2c2ccccc12	> 100	> 100	> 100	> 100	> 100	> 100	> 100	> 100	> 100		> 100
Fc1ccc(-c2sc(-c3ccsc3)cc2Cc2ccsc2)cc1	> 10		> 10		> 10	> 10	> 10	> 10	> 10	> 10	> 10
CC(=O)OCC1OC(N2C(=O)NC(=O)C3C=C4CCCCC4=CC32)CC1OC(C)=O (stereo unspecified)	> 100	> 100	> 100	> 100	> 100	> 100	> 100	> 100		> 100	> 100
COc1cc(C2c3cc4c(cc3OC(NNC(N)=O)C2C)OCO4)cc(OC)c1OC (stereo unspecified)	> 100	> 100	> 100	0.0599	> 100	> 100	> 100	> 100	0.613	> 100	
Cn1cnc(N2CCCC2)c(C#N)c1=S	> 100	> 100	> 100	> 100		> 100	> 100	> 100	> 100	> 100	> 100
CCn1c2nc(=O)n(CCCCCCCCSC(c3ccccc3)(c3ccccc3)c3ccccc3)c(=O)c-2nc2ccccc21	> 100	> 100	> 100	> 100	> 100			> 100			> 100
COC(C/C(=C/CO[Si](C(C)C)(C(C)C)C(C)C)C(=O)N(C(=O)OC(C)(C)C)c1ccccc1I)OC	> 100	> 100	> 100	> 100	> 100	> 100	> 100	> 100	> 100		> 100
CC(=O)OCC1OC(n2cnc3nc(Br)[nH]c(=O)c32)C(OC(C)=O)C1OC(C)=O (stereo unspecified)		> 100	> 100	> 100	> 100	> 100	> 100	> 100	> 100	> 100	> 100
O=c1[nH]c2ccccc2c(O)c1Cc1ccccc1	> 100	> 100	> 100	> 100		> 100		> 100	> 100	> 100	> 100
Cn1c(-c2ccc[se]2)ccc1-c1ccc(C=O)[se]1	> 100	9.13	42.2	3.01	42.3	> 67.9		59.1	> 49.4		> 100
COc1cc(C2S/C(=C/c3ccccc3)C(=O)N2Cc2ccccc2)cc(OC)c1OC (stereo unspecified)	> 100	> 100	> 100	> 100	> 100	> 100	> 100	> 100	> 100		52.6
Cc1ccc(/C=C/C(=O)Oc2ccc(/C=C3\CCC/C(=C\c4ccc(OC(=O)/C=C/c5ccc(C)cc5)cc4)C3=O)cc2)cc1	> 100	> 100	> 100			> 100	> 100	> 100	> 100		> 100
CCOC(=O)c1[nH]cc(C)c1-c1cccn1-c1ccc(Cl)cc1[N+](=O)[O-]	55.7	52.9	78.9	> 100		64.7	48.2	61.5	38.2		69.6
